Test [1] has as its target Human α2δ-1 subunit of Cav2.2 calcium channel (Homo sapiens, UniProt P54289). Nature of the test: Human α2δ-1 subunit of Cav2.2 calcium channel assay ([3H]-Gabapentin binding). On the procedure:
Human α2δ-1 Subunit of Cav2.2 Calcium Channel Assay
Human α2δ-1 enriched membranes (2.5 μg) were incubated with 15 nM of radiolabeled [3H]-Gabapentin in assay buffer containing Hepes-KOH 10 mM, pH 7.4. NSB (non specific binding) was measured by adding 10 μM pregabalin. After 60 min incubation at 27° C., binding reaction was terminated by filtering through Multiscreen GF/C (Millipore) presoaked in 0.5% polyethyleneimine in Vacuum Manifold Station, followed by 3 washes with ice-cold filtration buffer containing 50 mM Tris-HCl, pH 7.4. Filter plates were dried at 60° C. for 1 hour and 30 μl of scintillation cocktail were added to each well before radioactivity reading. Readings were performed in a Trilux 1450 Microbeta radioactive counter (Perkin Elmer).

The next test addresses T1, human μ-opioid receptor (Homo sapiens, UniProt P35372).
T1 construct: expressed in transfected cells; host or cells: CHO-K1
In words: Human μ-opioid receptor radioligand assay ([3H]-DAMGO). It is filed as binding. On the procedure:
Human μ-Opioid Receptor Radioligand Assay
To investigate binding properties of test compounds to human μ-opioid receptor, transfected CHO-K1 cell membranes and [^3H]-DAMGO (Perkin Elmer, ES-542-C), as the radioligand, were used. The assay was carried out with 20 μg of membrane suspension, 1 nM of [^3H]-DAMGO in either absence or presence of either buffer or 10 μM Naloxone for total and non-specific binding, respectively. Binding buffer contained Tris-HCl 50 mM, MgCl2 5 mM at pH 7.4. Plates were incubated at 27° C. for 60 minutes. After the incubation period, the reaction mix was then transferred to MultiScreen HTS, FC plates (Millipore), filtered and plates were washed 3 times with ice-cold 10 mM Tris-HCL (pH 7.4). Filters were dried and counted at approximately 40% efficiency in a MicroBeta scintillation counter (Perkin-Elmer) using EcoScint liquid scintillation cocktail.

Where [2] appears, read: human α2δ-1 enriched membranes, 15 nM [3H]-Gabapentin, read-out: α2δ-1 binding.
[3] abbreviates: transfected CHO-K1 cell membranes, 1 nM [3H]-DAMGO, read-out: μ binding.

Ki data for 34 compounds are collected here from patent publication US20200002283A1, “PYRAZOLE DERIVATIVES HAVING ACTIVITY AGAINST PAIN” (priority 2016, published 2020).

Each structure is given as a SMILES string. Read-outs that look alike come from different tables or passages of the source. Where only a bound is given, the exact number is not on record here.

Sequence of Human α2δ-1 subunit of Cav2.2 calcium channel (P54289 25-1103): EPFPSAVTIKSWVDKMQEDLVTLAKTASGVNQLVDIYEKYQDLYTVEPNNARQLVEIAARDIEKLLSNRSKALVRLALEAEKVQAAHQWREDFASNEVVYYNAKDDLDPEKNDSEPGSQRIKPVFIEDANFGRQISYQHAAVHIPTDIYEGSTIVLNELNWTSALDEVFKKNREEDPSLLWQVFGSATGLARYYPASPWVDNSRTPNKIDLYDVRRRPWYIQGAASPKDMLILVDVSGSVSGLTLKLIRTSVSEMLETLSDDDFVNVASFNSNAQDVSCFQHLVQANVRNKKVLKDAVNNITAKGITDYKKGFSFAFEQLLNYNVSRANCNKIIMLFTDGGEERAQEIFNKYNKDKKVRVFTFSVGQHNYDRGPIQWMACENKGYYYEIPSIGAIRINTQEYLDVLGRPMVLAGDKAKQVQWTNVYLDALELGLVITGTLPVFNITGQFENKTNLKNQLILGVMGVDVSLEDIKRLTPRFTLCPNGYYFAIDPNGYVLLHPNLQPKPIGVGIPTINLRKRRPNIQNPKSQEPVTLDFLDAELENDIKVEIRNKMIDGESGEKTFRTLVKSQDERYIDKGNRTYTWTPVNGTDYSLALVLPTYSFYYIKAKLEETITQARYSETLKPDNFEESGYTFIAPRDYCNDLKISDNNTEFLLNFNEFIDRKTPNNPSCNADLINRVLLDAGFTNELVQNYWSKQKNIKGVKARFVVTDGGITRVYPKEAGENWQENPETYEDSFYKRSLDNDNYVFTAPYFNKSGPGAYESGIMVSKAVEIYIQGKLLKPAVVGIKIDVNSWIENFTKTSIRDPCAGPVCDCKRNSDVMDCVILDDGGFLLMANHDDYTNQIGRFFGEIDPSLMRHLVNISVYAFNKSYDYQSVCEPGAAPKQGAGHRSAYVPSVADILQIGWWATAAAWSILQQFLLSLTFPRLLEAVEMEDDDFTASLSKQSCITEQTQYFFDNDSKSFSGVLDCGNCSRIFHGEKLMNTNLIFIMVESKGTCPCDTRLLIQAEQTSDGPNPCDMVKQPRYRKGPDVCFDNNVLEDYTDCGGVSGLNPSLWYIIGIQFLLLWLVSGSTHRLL
T1 sequence (P35372 whole entry): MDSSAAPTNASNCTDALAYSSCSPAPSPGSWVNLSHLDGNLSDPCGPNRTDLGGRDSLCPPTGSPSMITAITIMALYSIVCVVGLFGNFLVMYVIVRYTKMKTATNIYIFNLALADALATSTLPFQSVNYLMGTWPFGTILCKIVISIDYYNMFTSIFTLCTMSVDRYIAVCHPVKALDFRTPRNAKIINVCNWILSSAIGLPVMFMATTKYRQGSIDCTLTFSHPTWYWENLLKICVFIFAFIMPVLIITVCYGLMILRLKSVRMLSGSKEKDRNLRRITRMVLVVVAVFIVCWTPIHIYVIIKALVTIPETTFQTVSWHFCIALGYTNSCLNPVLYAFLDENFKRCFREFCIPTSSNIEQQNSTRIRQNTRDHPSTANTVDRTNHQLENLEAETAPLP

For the compound `CCC(N)c1cc(Cc2ccc(OC)cc2)n(-c2ccc(Cl)cc2Cl)n1` (centres unmarked) [Example 32, 1-[1-(2,4-Dichlorophenyl)-5-(4-methoxybenzyl)-1H-pyrazol-3-yl]propan-1-amine], the Ki in test [1] (setting [2]) is more than 5000 nM; at human μ-opioid receptor (setting [3]) it was more than 500 nM.
The like results for `COc1ccc(C(C)(C)c2cc(C(C)N)nn2-c2ccc(Cl)cc2Cl)cc1` (centres unmarked) [Example 33, 1-[1-(2,4-Dichlorophenyl)-5-(2-(4-methoxyphenyl)propan-2-yl)-1H-pyrazol-3-yl]ethanamine] were, in that order, more than 5000 nM and more than 500 nM.
In the case of `NCc1cc(Cc2cccc(O)c2)n(-c2ccc(Cl)cc2Cl)n1` [Example 34, 3-{[3-(Aminomethyl)-1-(2,4-dichlorophenyl)-1H-pyrazol-5-yl]methyl}phenol], the Ki fell in the range of 500 to 3000 nM in test [1] and 100 to 500 nM at human μ-opioid receptor.
As to `NCc1cc(Cc2ccccc2)n(-c2ccc(O)cc2)n1` [Example 35, 4-[3-(Aminomethyl)-5-benzyl-1H-pyrazol-1-yl]phenol], the Ki was 3000 to 5000 nM in test [1] (setting [2]) and more than 500 nM at human μ-opioid receptor (setting [3]).
Turning to `NCc1cc(Cc2ccccc2)n(-c2cccc(O)c2)n1` [Example 36, 3-[3-(Aminomethyl)-5-benzyl-1H-pyrazol-1-yl]phenol], the figures for the Ki (in test [1] (setting [2]); on human μ-opioid receptor (setting [3])) were 3000 to 5000 nM and more than 500 nM, respectively.
`COc1ccc(-n2nc(CN)cc2Cc2ccc(O)cc2)c(Cl)c1` [Example 37, 4-{[3-(Aminomethyl)-1-(2-chloro-4-methoxyphenyl)-1H-pyrazol-5-yl]methyl}phenol]: the Ki in test [1] was 500 to 3000 nM; at human μ-opioid receptor, less than 100 nM.
The like results for `NCc1cc(Cc2ccc(O)cc2)n(-c2ccc(Cl)cc2Cl)n1` [Example 38, 4-{[3-(Aminomethyl)-1-(2,4-dichlorophenyl)-1H-pyrazol-5-yl]methyl}phenol] were, in that order, 500 to 3000 nM and less than 100 nM.
Consider `NCc1cc(Cc2ccc(O)cc2)n(-c2ccccc2Cl)n1` [Example 39, 4-{[3-(Aminomethyl)-1-(2-chlorophenyl)-1H-pyrazol-5-yl]methyl}phenol], for which the Ki in test [1] (setting [2]) is 500 to 3000 nM; on human μ-opioid receptor (setting [3]), more than 500 nM.
For `NCc1cc(Cc2ccc(O)cc2)n(-c2ccc(Cl)cc2)n1` [Example 40, 4-{[3-(Aminomethyl)-1-(4-chlorophenyl)-1H-pyrazol-5-yl]methyl}phenol], the Ki is 3000 to 5000 nM in test [1] (setting [2]) and more than 500 nM at human μ-opioid receptor (setting [3]).
Regarding `NCc1cc(Cc2ccc(O)cc2)n(-c2ccc(O)cc2Cl)n1` [Example 41, 4-[3-(Aminomethyl)-5-(4-hydroxybenzyl)-1H-pyrazol-1-yl]-3-chlorophenol], the results for the Ki (in test [1]; on human μ-opioid receptor) were more than 5000 nM and less than 100 nM, respectively.
As for `NCc1cc(Cc2ccc(O)cc2)n(-c2ccc(F)cc2Cl)n1` [Example 42, 4-{[3-(Aminomethyl)-1-(2-chloro-4-fluorophenyl)-1H-pyrazol-5-yl]methyl}phenol], the Ki was in the range of 500 to 3000 nM in test [1] and 100 to 500 nM on human μ-opioid receptor.
For the compound `NCc1cc(Cc2ccc(O)cc2)n(-c2ccccn2)n1` [Example 43, 4-{[3-(Aminomethyl)-1-(pyridin-2-yl)-1H-pyrazol-5-yl]methyl}phenol], the Ki is more than 5000 nM in test [1] (setting [2]) and more than 500 nM at human μ-opioid receptor (setting [3]).
On to `CC(C)Cn1nc(CN)cc1Cc1ccc(O)cc1` [Example 44, 4-{[3-(Aminomethyl)-1-isobutyl-1H-pyrazol-5-yl]methyl}phenol], for which the Ki in test [1] is less than 500 nM; at human μ-opioid receptor it was more than 500 nM.
With `NCc1cc(Cc2ccc(O)cc2)n(Cc2ccc(Cl)cc2)n1` [Example 45, 4-{[3-(Aminomethyl)-1-(4-chlorobenzyl)-1H-pyrazol-5-yl]methyl}phenol], the Ki in test [1] (setting [2]) is 500 to 3000 nM; at human μ-opioid receptor (setting [3]) it was more than 500 nM.
As to `NCc1cc(Cc2ccc(O)cc2)n(Cc2ccccc2)n1` [Example 46, 4-{[3-(Aminomethyl)-1-benzyl-1H-pyrazol-5-yl]methyl}phenol], the Ki was 3000 to 5000 nM in test [1] (setting [2]) and more than 500 nM on human μ-opioid receptor (setting [3]).
The like results for `NCc1cc(Cc2ccc(O)cc2)n(Cc2ccccc2Cl)n1` [Example 47, 4-{[3-(Aminomethyl)-1-(2-chlorobenzyl)-1H-pyrazol-5-yl]methyl}phenol] were, in that order, 500 to 3000 nM and more than 500 nM.
On to `NCc1cc(Cc2ccc(O)cc2)n(Cc2ccc(Cl)cc2Cl)n1` [Example 48], for which the Ki in test [1] (setting [2]) is 500 to 3000 nM; at human μ-opioid receptor (setting [3]) it was more than 500 nM.
`CC(c1ccccc1)n1nc(CN)cc1Cc1ccc(O)cc1` (centres unmarked) [Example 49, 4-{[3-(Aminomethyl)-1-(1-phenylethyl)-1H-pyrazol-5-yl]methyl}phenol]: the values for the Ki (in test [1] (setting [2]); on human μ-opioid receptor (setting [3])) were more than 5000 nM and more than 500 nM, respectively.
Regarding `CCNCc1cc(Cc2ccc(O)cc2)n(CC(C)C)n1` [Example 50, 4-({3-[{Ethylamino)methyl]-1-isobutyl-1H-pyrazol-5-yl}methyl)phenol], the Ki in test [1] (setting [2]) is 3000 to 5000 nM; on human μ-opioid receptor (setting [3]) it was more than 500 nM.
Regarding `CC(N)c1cc(Cc2ccc(O)cc2)n(-c2ccc(Cl)cc2Cl)n1` (centres unmarked) [Example 51, 4-{[3-(1-Aminoethyl)-1-(2,4-dichlorophenyl)-1H-pyrazol-5-yl]methyl}phenol], the Ki in test [1] was less than 500 nM; at human μ-opioid receptor, less than 100 nM.
Turning to `CC(N)c1cc(Cc2ccc(O)c(F)c2)n(-c2ccc(Cl)cc2Cl)n1` (centres unmarked) [Example 52, 4-{[3-(1-Aminoethyl)-1-(2,4-dichlorophenyl)-1H-pyrazol-5-yl]methyl}-2-fluorophenol], the values for the Ki (in test [1]; at human μ-opioid receptor) were less than 500 nM and less than 100 nM, respectively.
In the same order, the values of `CCCC(N)c1cc(Cc2ccc(O)c(F)c2)n(-c2ccc(Cl)cc2Cl)n1` (centres unmarked) [Example 53, 4-{[3-(1-Aminobutyl)-1-(2,4-dichlorophenyl)-1H-pyrazol-5-yl]methyl}-2-fluorophenol] are less than 500 nM and less than 100 nM.
With `CCC(N)c1cc(Cc2ccc(O)cc2)n(-c2ccc(Cl)cc2Cl)n1` (centres unmarked) [Example 54, 4-{[3-(1-Aminopropyl)-1-(2,4-dichlorophenyl)-1H-pyrazol-5-yl]methyl}phenol], the Ki in test [1] was 500 to 3000 nM; on human μ-opioid receptor it was 100 to 500 nM.
Turning to `CC(N)c1cc(C(C)(C)c2ccc(O)cc2)n(-c2ccc(Cl)cc2Cl)n1` (centres unmarked) [Example 55, 4-{2-[3-(1-Aminoethyl)-1-(2,4-dichlorophenyl)-1H-pyrazol-5-yl]propan-2-yl]phenol], the Ki in test [1] (setting [2]) is 500 to 3000 nM; on human μ-opioid receptor (setting [3]), more than 500 nM.
With `CC(C)(N)c1cc(Cc2ccc(O)c(F)c2)n(-c2ccc(Cl)cc2Cl)n1` [Example 56, 4-{[3-(2-Aminopropan-2-yl)-1-(2,4-dichlorophenyl)-1H-pyrazol-5-yl]methyl}-2-fluorophenol], the Ki in test [1] is 3000 to 5000 nM; at human μ-opioid receptor, less than 100 nM.
In the case of `CC(C)(N)c1cc(Cc2ccc(O)cc2)n(-c2ccc(Cl)cc2Cl)n1` [Example 57, 4-{[3-(2-Aminopropan-2-yl)-1-(2,4-dichlorophenyl)-1H-pyrazol-5-yl]methyl}phenol], the Ki is 3000 to 5000 nM in test [1] and less than 100 nM on human μ-opioid receptor.
In the same order, the values of `NCCc1cc(Cc2ccc(O)cc2)n(-c2ccc(Cl)cc2Cl)n1` [Example 58, 4-{[3-(2-Aminoethyl)-1-(2,4-dichlorophenyl)-1H-pyrazol-5-yl]methyl}phenol] are 3000 to 5000 nM and less than 100 nM.
The like results for `CC(CN)c1cc(Cc2ccc(O)cc2)n(-c2ccc(Cl)cc2Cl)n1` (centres unmarked) [Example 59, 4-{[3-(1-Aminopropan-2-yl)-1-(2,4-dichlorophenyl)-1H-pyrazol-5-yl]methyl}phenol] were, in that order, more than 5000 nM and less than 100 nM.
Consider `CCC(CN)c1cc(Cc2ccc(O)cc2)n(-c2ccc(Cl)cc2Cl)n1` (centres unmarked) [Example 60, 4-{[3-(1-Aminobutan-2-yl)-1-(2,4-dichlorophenyl)-1H-pyrazol-5-yl]methyl}phenol], for which the Ki in test [1] is more than 5000 nM; on human μ-opioid receptor, less than 100 nM.
The like results for `C[C@H](N)c1cc(Cc2ccc(O)cc2)n(-c2ccc(Cl)cc2Cl)n1` [Example 61, (S)-4-{[3-(1-Aminoethyl)-1-(2,4-dichlorophenyl)-1H-pyrazol-5-yl]methyl}phenol] were, in that order, less than 500 nM and less than 100 nM.
The like results for `C[C@@H](N)c1cc(Cc2ccc(O)cc2)n(-c2ccc(Cl)cc2Cl)n1` [Example 62, (R)-4-{[3-(1-Aminoethyl)-1-(2,4-dichlorophenyl)-1H-pyrazol-5-yl]methyl}phenol] were, in that order, 500 to 3000 nM and less than 100 nM.
In the case of `CC(N)c1cc(Cc2ccc(O)cc2)n(C2CCCCC2)n1` (centres unmarked) [Example 65, 4-{[3-(1-Aminoethyl)-1-cyclohexyl-1H-pyrazol-5-yl]methyl}phenol], the Ki was less than 500 nM in test [1] and more than 500 nM on human μ-opioid receptor.
Regarding `CC(N)c1cc(Cc2ccc(O)cc2)n(C2CCOCC2)n1` (centres unmarked) [Example 66, 4-{[3-(1-Aminoethyl)-1-(tetrahydro-2H-pyran-4-yl)-1H-pyrazol-5-yl]methyl}phenol], the Ki is more than 5000 nM in test [1] (setting [2]) and more than 500 nM at human μ-opioid receptor (setting [3]).
In the same order, the values of `CC(N)c1cc(Cc2ccc(O)cc2)n(CCc2ccccc2)n1` (centres unmarked) [Example 67, 4-{[3-(1-Aminoethyl)-1-phenethyl-1H-pyrazol-5-yl]methyl}phenol] are more than 5000 nM and more than 500 nM.
